{"source": "paper PMC10141580", "about": "“Cyclic Dichalcogenides Extend the Reach of Bioreductive Prodrugs to Harness Thiol/Disulfide Oxidoreductases: Applications to seco-Duocarmycins Targeting the Thioredoxin System” (ACS Central Science, 2023)", "system": "panel of 140 standard cancer cell lines", "assay": "ProliFiler-140 cancer cell line screen (CellTiterGlo, 72 h)", "type": "cell-based", "details": "read-out: IC50 [M] (ProliFiler-140)", "description": "Incubations were performed for 72 h before automated viability readout with CellTiterGlo (Figure 8).\nEnd of Figure S11 (part 5 of 5): ProliFiler-140 cancer cell line screening for cytotoxicity of the prodrugs.\n8-data-point dose response curves from CellTiter-Glo® viability readout.\nProliFiler-140 cell line panel part V", "note": "Where two headings read alike, the source gives them in different places."}
{"smiles": "COc1cccc2c1C(=O)c1c(O)c3c(c(O)c1C2=O)C[C@@](O)(C(=O)CO)C[C@@H]3O[C@H]1C[C@H](N)[C@H](O)[C@H](C)O1", "note": "[doxorubicin, reference compound]", "values": [{"measurement": "IC50", "setting": "MCAS (Ovary), listed as Dox", "value": "1.13e-07", "unit": "M"}, {"measurement": "IC50", "setting": "MCAS (Ovary)", "value": "1.1e-07", "unit": "M"}, {"measurement": "IC50", "setting": "MDA MB 435 (Skin), listed as Dox", "value": "4.83e-07", "unit": "M"}, {"measurement": "IC50", "setting": "MDA-MB-468 (Breast), listed as Dox", "value": "4.71e-08", "unit": "M"}, {"measurement": "IC50", "setting": "MEC-1 (Blood), listed as Dox", "value": "7.33e-08", "unit": "M"}, {"measurement": "IC50", "setting": "MKN-1 (Stomach), listed as Dox", "value": "5.25e-08", "unit": "M"}, {"measurement": "IC50", "setting": "MOLM-13 (Blood), listed as Dox", "value": "2.12e-08", "unit": "M"}, {"measurement": "IC50", "setting": "MV4-11 (Blood), listed as Dox", "value": "4.26e-09", "unit": "M"}, {"measurement": "IC50", "setting": "Mia PaCA 2 (Pancreas), listed as Dox", "value": "7.4e-08", "unit": "M"}, {"measurement": "IC50", "setting": "NCI-H82 (Lung), listed as Dox", "value": "6.24e-07", "unit": "M"}, {"measurement": "IC50", "setting": "NCI-H292 (Lung), listed as Dox", "value": "7.17e-08", "unit": "M"}, {"measurement": "IC50", "setting": "NCI-H838 (Lung), listed as Dox", "value": "1.51e-07", "unit": "M"}, {"measurement": "IC50", "setting": "NCI-H1563 (Lung), listed as Dox", "value": "5.43e-07", "unit": "M"}, {"measurement": "IC50", "setting": "NCI-H1573 (Lung), listed as Dox", "value": "2.97e-06", "unit": "M"}, {"measurement": "IC50", "setting": "NCI-H1703 (Lung), listed as Dox", "value": "9.24e-08", "unit": "M"}, {"measurement": "IC50", "setting": "NCI-H1838 (Lung), listed as Dox", "value": "2.52e-07", "unit": "M"}, {"measurement": "IC50", "setting": "NCI-H2110 (Lung), listed as Dox", "value": "3.55e-08", "unit": "M"}, {"measurement": "IC50", "setting": "NCI-H2110, NCI-H2110 (Lung)", "value": "3.6e-08", "unit": "M"}, {"measurement": "IC50", "setting": "NCI-H2286 (Lung), listed as Dox", "value": "4.39e-08", "unit": "M"}, {"measurement": "IC50", "setting": "OCI-AML5 (Blood), listed as Dox", "value": "3.09e-08", "unit": "M"}, {"measurement": "IC50", "setting": "OCI-LY19 (Blood), listed as Dox", "value": "5.5e-09", "unit": "M"}, {"measurement": "IC50", "setting": "OPM-2 (Blood), listed as Dox", "value": "2.4e-07", "unit": "M"}, {"measurement": "IC50", "setting": "OV56, OV56 (Ovary)", "value": "2.02e-07", "unit": "M"}, {"measurement": "IC50", "setting": "OVCAR-3 (Ovary), listed as Dox", "value": "3.73e-07", "unit": "M"}, {"measurement": "IC50", "setting": "OVK18 (Ovary), listed as Dox", "value": "3.4e-08", "unit": "M"}, {"measurement": "IC50", "setting": "OVK18, OVK18 (Ovary)", "value": "3.42e-08", "unit": "M"}, {"measurement": "IC50", "setting": "P31/FUJ (Blood), listed as Dox", "value": "1.02e-07", "unit": "M"}, {"measurement": "IC50", "setting": "PANC-1 (Pancreas), listed as Dox", "value": "8.01e-07", "unit": "M"}, {"measurement": "IC50", "setting": "PC3 (Prostate), listed as Dox", "value": "7.4e-07", "unit": "M"}, {"measurement": "IC50", "setting": "PC3 (Prostate)", "value": "7.38e-07", "unit": "M"}, {"measurement": "IC50", "setting": "PC-9 (Lung), listed as Dox", "value": "1.92e-07", "unit": "M"}, {"measurement": "IC50", "setting": "PC-9 (Lung)", "value": "1.9e-07", "unit": "M"}, {"measurement": "IC50", "setting": "RERF-LC-Ad2, RERF-LC-Ad2 (Lung)", "value": "4.6e-07", "unit": "M"}, {"measurement": "IC50", "setting": "RERF-LC-MS (Lung), listed as Dox", "value": "1.7e-07", "unit": "M"}, {"measurement": "IC50", "setting": "RERF-LC-MS (Lung)", "value": "1.74e-07", "unit": "M"}, {"measurement": "IC50", "setting": "RKO (Colon), listed as Dox", "value": "9.9e-08", "unit": "M"}, {"measurement": "IC50", "setting": "RKO (Colon)", "value": "9.86e-08", "unit": "M"}, {"measurement": "IC50", "setting": "RPMI 8226 (Blood), listed as Dox", "value": "8.8e-08", "unit": "M"}, {"measurement": "IC50", "setting": "SCH (Stomach), listed as Dox", "value": "1.38e-07", "unit": "M"}, {"measurement": "IC50", "setting": "SCH (Stomach)", "value": "1.4e-07", "unit": "M"}, {"measurement": "IC50", "setting": "SK-BR-3 (Breast), listed as Dox", "value": "1.28e-07", "unit": "M"}, {"measurement": "IC50", "setting": "SK-LU-1 (Lung), listed as Dox", "value": "2.67e-07", "unit": "M"}, {"measurement": "IC50", "setting": "SK-MEL-3 (Skin), listed as Dox", "value": "5.12e-07", "unit": "M"}, {"measurement": "IC50", "setting": "SK-N-FI (Brain), listed as Dox", "value": "1.4e-06", "unit": "M"}, {"measurement": "IC50", "setting": "SK-N-MC (Brain), listed as Dox", "value": "1.47e-08", "unit": "M"}, {"measurement": "IC50", "setting": "SK-N-SH (Brain), listed as Dox", "value": "9.82e-08", "unit": "M"}, {"measurement": "IC50", "setting": "SK-OV3 (Ovary), listed as Dox", "value": "1.8e-07", "unit": "M"}, {"measurement": "IC50", "setting": "SNU-1 (Stomach), listed as Dox", "value": "5.88e-08", "unit": "M"}, {"measurement": "IC50", "setting": "SNU-216, SNU-216 (Stomach)", "value": "3.9e-07", "unit": "M"}, {"measurement": "IC50", "setting": "SNU-840, SNU840 (Ovary)", "value": "1.33e-07", "unit": "M"}, {"measurement": "IC50", "setting": "SU-DHL-5 (Blood), listed as Dox", "value": "9.15e-09", "unit": "M"}, {"measurement": "IC50", "setting": "SW-1783 (Brain), listed as Dox", "value": "3e-07", "unit": "M"}, {"measurement": "IC50", "setting": "T84 (Colon), listed as Dox", "value": "1.4e-06", "unit": "M"}, {"measurement": "IC50", "setting": "T84 (Colon)", "value": "1.35e-06", "unit": "M"}, {"measurement": "IC50", "setting": "T-47D (Breast), listed as Dox", "value": "4.35e-07", "unit": "M"}, {"measurement": "IC50", "setting": "U87MG (Brain), listed as Dox", "value": "1.62e-07", "unit": "M"}, {"measurement": "IC50", "setting": "U118MG (Brain), listed as Dox", "value": "2.6e-07", "unit": "M"}, {"measurement": "IC50", "setting": "U251MG (Brain), listed as Dox", "value": "7.84e-07", "unit": "M"}]}
